# Tested on: 242566-281-R-J2-PDC complex spheroid viability
# Experiment: Anticancer human tumor 242566-281-R-J2-PDC patient-derived pancreatic carcinoma cell line growth inhibition [RAS]
# Details: for IC50: curve of first compound; for viability, T/C: stronger effect = lower value
# Outline: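 Tumour cells grown as complex spheroids with HUVEC endothelial cells and mesenchymal stem cells, treated with RAS pathway inhibitor combinations. Each agent spans half-log steps from near clinical Cmax, or 10 microM where Cmax is unknown.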
# [1] = second compound 0.00316 µM, first compound 0.0316 µM
# [2] = second compound 0.00316 µM, first compound 0.1 µM
# [3] = second compound 0.00316 µM, first compound 0.316 µM
# [4] = second compound 0.00316 µM, first compound 1 µM
# [5] = second compound 0.00316 µM, first compound 3.16 µM
# [6] = second compound 0.00316 µM, first compound 10 µM
# [7] = second compound 0.01 µM, first compound 0.0316 µM
# [8] = second compound 0.01 µM, first compound 0.1 µM
# [9] = second compound 0.01 µM, first compound 0.316 µM
# [10] = second compound 0.01 µM, first compound 1 µM
# [11] = second compound 0.01 µM, first compound 3.16 µM
# [12] = second compound 0.01 µM, first compound 10 µM
# [13] = second compound 0.0316 µM, first compound 0.0316 µM
# [14] = second compound 0.0316 µM, first compound 0.1 µM
# [15] = second compound 0.0316 µM, first compound 0.316 µM
# [16] = second compound 0.0316 µM, first compound 1 µM
# [17] = second compound 0.0316 µM, first compound 3.16 µM
# [18] = second compound 0.0316 µM, first compound 10 µM
# [19] = second compound 0.1 µM, first compound 0.0316 µM
# [20] = second compound 0.1 µM, first compound 0.1 µM
# [21] = second compound 0.1 µM, first compound 0.316 µM
# [22] = second compound 0.1 µM, first compound 1 µM
# [23] = second compound 0.1 µM, first compound 3.16 µM
# [24] = second compound 0.1 µM, first compound 10 µM
# [25] = second compound 0.316 µM, first compound 0.0316 µM
# [26] = second compound 0.316 µM, first compound 0.1 µM
# [27] = second compound 0.316 µM, first compound 0.316 µM
# [28] = second compound 0.316 µM, first compound 1 µM
# [29] = second compound 0.316 µM, first compound 3.16 µM
# [30] = second compound 0.316 µM, first compound 10 µM
# [31] = second compound 1 µM, first compound 0.0316 µM
# [32] = second compound 1 µM, first compound 0.1 µM
# [33] = second compound 1 µM, first compound 0.316 µM
# [34] = second compound 1 µM, first compound 1 µM
# [35] = second compound 1 µM, first compound 3.16 µM
# [36] = second compound 1 µM, first compound 10 µM
# 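Also: spheroids exposed to compound for 7 days before readout.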
# 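For viability, T/C in this document: 100% = DMSO vehicle control wells.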
compound,measurement,setting,value
CC(C)n1nc(-c2ccc3oc(N)nc3c2)c2c(N)ncnc21 + CCn1c(-c2cc(N3CCN(C)CC3)cnc2C(C)OC)c2c3cc(ccc31)-c1csc(n1)CC(NC(=O)C1CC1C)C(=O)N1CCCC(N1)C(=O)OCC(C)(C)C2,IC50,second compound 0.000949 µM,0.0299 µM
same,IC50,second compound 0.003 µM,0.00715 µM
same,IC50,second compound 0.00949 µM,< 0.000316 µM
same,IC50,second compound 0.03 µM,< 0.000316 µM
same,IC50,second compound 0.0949 µM,< 0.000316 µM
same,IC50,second compound 0.3 µM,< 0.000316 µM
same,"viability, T/C","second compound 0.000949 µM, first compound 0.000316 µM",81.6%
same,"viability, T/C","second compound 0.000949 µM, first compound 0.001 µM",91.5%
same,"viability, T/C","second compound 0.000949 µM, first compound 0.00316 µM",61.7%
same,"viability, T/C","second compound 0.000949 µM, first compound 0.01 µM",71.3%
same,"viability, T/C","second compound 0.000949 µM, first compound 0.0316 µM",48%
same,"viability, T/C","second compound 0.000949 µM, first compound 0.1 µM",27.4%
same,"viability, T/C","second compound 0.003 µM, first compound 0.000316 µM",75.8%
same,"viability, T/C","second compound 0.003 µM, first compound 0.001 µM",62.1%
same,"viability, T/C","second compound 0.003 µM, first compound 0.00316 µM",54.2%
same,"viability, T/C","second compound 0.003 µM, first compound 0.01 µM",48.7%
same,"viability, T/C","second compound 0.003 µM, first compound 0.0316 µM",40.9%
same,"viability, T/C","second compound 0.003 µM, first compound 0.1 µM",20.6%
same,"viability, T/C","second compound 0.00949 µM, first compound 0.000316 µM",48.5%
same,"viability, T/C","second compound 0.00949 µM, first compound 0.001 µM",38.4%
same,"viability, T/C","second compound 0.00949 µM, first compound 0.00316 µM",36.1%
same,"viability, T/C","second compound 0.00949 µM, first compound 0.01 µM",30.9%
same,"viability, T/C","second compound 0.00949 µM, first compound 0.0316 µM",28.2%
same,"viability, T/C","second compound 0.00949 µM, first compound 0.1 µM",15.8%
same,"viability, T/C","second compound 0.03 µM, first compound 0.000316 µM",28.5%
same,"viability, T/C","second compound 0.03 µM, first compound 0.001 µM",29.8%
same,"viability, T/C","second compound 0.03 µM, first compound 0.00316 µM",26.3%
same,"viability, T/C","second compound 0.03 µM, first compound 0.01 µM",19.1%
same,"viability, T/C","second compound 0.03 µM, first compound 0.0316 µM",11.9%
same,"viability, T/C","second compound 0.03 µM, first compound 0.1 µM",10.4%
same,"viability, T/C","second compound 0.0949 µM, first compound 0.000316 µM",21.5%
same,"viability, T/C","second compound 0.0949 µM, first compound 0.001 µM",18.4%
same,"viability, T/C","second compound 0.0949 µM, first compound 0.00316 µM",18.9%
same,"viability, T/C","second compound 0.0949 µM, first compound 0.01 µM",13.8%
same,"viability, T/C","second compound 0.0949 µM, first compound 0.0316 µM",7.41%
same,"viability, T/C","second compound 0.0949 µM, first compound 0.1 µM",6.96%
same,"viability, T/C","second compound 0.3 µM, first compound 0.000316 µM",18.5%
same,"viability, T/C","second compound 0.3 µM, first compound 0.001 µM",16.6%
same,"viability, T/C","second compound 0.3 µM, first compound 0.00316 µM",15.2%
same,"viability, T/C","second compound 0.3 µM, first compound 0.01 µM",11.5%
same,"viability, T/C","second compound 0.3 µM, first compound 0.0316 µM",7.41%
same,"viability, T/C","second compound 0.3 µM, first compound 0.1 µM",5.69%
CC(Nc1ccc2c(c1)OCCn1cc(N3C(=O)OCC3C(F)F)nc1-2)C(N)=O (stereo unspecified) + C=CC(=O)N1CCN(c2nc(OCC3CCCN3C)nc3c(F)c(-c4nc(N)cc(C)c4C(F)(F)F)c(Cl)cc23)C(C)C1,IC50,second compound 0.00316 µM,0.753 µM
same,IC50,second compound 0.01 µM,0.926 µM
same,IC50,second compound 0.0316 µM,1.71 µM
same,IC50,second compound 0.1 µM,0.627 µM
same,IC50,second compound 0.316 µM,1.43 µM
same,IC50,second compound 1 µM,1.29 µM
same,"viability, T/C",[1],86.4%
same,"viability, T/C",[2],113%
same,"viability, T/C",[3],76.7%
same,"viability, T/C",[4],42.7%
same,"viability, T/C",[5],34.7%
same,"viability, T/C",[6],27.4%
same,"viability, T/C",[7],105%
same,"viability, T/C",[8],115%
same,"viability, T/C",[9],80.3%
same,"viability, T/C",[10],48.3%
same,"viability, T/C",[11],37.1%
same,"viability, T/C",[12],24.4%
same,"viability, T/C",[13],96.1%
same,"viability, T/C",[14],102%
same,"viability, T/C",[15],76.1%
same,"viability, T/C",[16],63.4%
same,"viability, T/C",[17],36.6%
same,"viability, T/C",[18],30.9%
same,"viability, T/C",[19],103%
same,"viability, T/C",[20],105%
same,"viability, T/C",[21],66%
same,"viability, T/C",[22],41.7%
same,"viability, T/C",[23],37.2%
same,"viability, T/C",[24],27.8%
same,"viability, T/C",[25],89.8%
same,"viability, T/C",[26],91.2%
same,"viability, T/C",[27],72%
same,"viability, T/C",[28],55.3%
same,"viability, T/C",[29],40%
same,"viability, T/C",[30],30.6%
same,"viability, T/C",[31],104%
same,"viability, T/C",[32],117%
same,"viability, T/C",[33],85.9%
same,"viability, T/C",[34],53.4%
same,"viability, T/C",[35],47%
same,"viability, T/C",[36],35.1%
C[C@@H](NC(=O)c1ncnc(N)c1Cl)c1ncc(C(=O)Nc2cc(C(F)(F)F)c(Cl)cn2)s1 + C=CC(=O)N1CCN(c2nc(OCC3CCCN3C)nc3c(F)c(-c4nc(N)cc(C)c4C(F)(F)F)c(Cl)cc23)C(C)C1,IC50,second compound 0.00316 µM,> 10 µM
same,IC50,second compound 0.01 µM,> 10 µM
same,IC50,second compound 0.0316 µM,> 10 µM
same,IC50,second compound 0.1 µM,> 10 µM
same,IC50,second compound 0.316 µM,> 10 µM
same,IC50,second compound 1 µM,> 10 µM
same,"viability, T/C",[1],111%
same,"viability, T/C",[2],142%
same,"viability, T/C",[3],111%
same,"viability, T/C",[4],106%
same,"viability, T/C",[5],110%
same,"viability, T/C",[6],126%
same,"viability, T/C",[7],112%
same,"viability, T/C",[8],148%
same,"viability, T/C",[9],113%
same,"viability, T/C",[10],105%
same,"viability, T/C",[11],105%
same,"viability, T/C",[12],122%
same,"viability, T/C",[13],125%
same,"viability, T/C",[14],124%
same,"viability, T/C",[15],115%
same,"viability, T/C",[16],123%
same,"viability, T/C",[17],97.1%
same,"viability, T/C",[18],118%
same,"viability, T/C",[19],122%
same,"viability, T/C",[20],153%
same,"viability, T/C",[21],107%
same,"viability, T/C",[22],113%
same,"viability, T/C",[23],106%
same,"viability, T/C",[24],109%
same,"viability, T/C",[25],107%
same,"viability, T/C",[26],124%
same,"viability, T/C",[27],122%
same,"viability, T/C",[28],112%
same,"viability, T/C",[29],110%
same,"viability, T/C",[30],124%
same,"viability, T/C",[31],111%
same,"viability, T/C",[32],124%
same,"viability, T/C",[33],119%
same,"viability, T/C",[34],103%
same,"viability, T/C",[35],117%
same,"viability, T/C",[36],106%
